pIC50: −log10 of the molar value. Several values for one entry are separate records, joined by “and”; a condition that tells them apart may be missing. Equal entries are not always repeated.
System: 931267-113-T-J1-PDC multicell spheroid viability
Assay: Anticancer human tumor 931267-113-T-J1-PDC patient-derived colon adenocarcinoma cell line growth inhibition [PI3K]
Details: for viability, T/C: stronger effect = lower value
Outline: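 Targeted small molecules plus PI3K inhibitors, half-log dose series from Cmax (default top 10 microM), were applied to heterotypic spheroids of cancer cells with HUVEC and MSCs. Viability indicated growth inhibition.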

[1] = curve of first compound, second compound 0.0316 µM
[2] = curve of first compound, second compound 0.1 µM
[3] = curve of first compound, second compound 0.316 µM
[4] = curve of first compound, second compound 1 µM
[5] = curve of first compound, second compound 3.16 µM
[6] = curve of first compound, second compound 10 µM
[7] = second compound 0.0316 µM, first compound 0.0316 µM
[8] = second compound 0.0316 µM, first compound 0.1 µM
[9] = second compound 0.0316 µM, first compound 0.316 µM
[10] = second compound 0.0316 µM, first compound 1 µM
[11] = second compound 0.0316 µM, first compound 3.16 µM
[12] = second compound 0.0316 µM, first compound 10 µM
[13] = second compound 0.1 µM, first compound 0.0316 µM
[14] = second compound 0.1 µM, first compound 0.1 µM
[15] = second compound 0.1 µM, first compound 0.316 µM
[16] = second compound 0.1 µM, first compound 1 µM
[17] = second compound 0.1 µM, first compound 3.16 µM
[18] = second compound 0.1 µM, first compound 10 µM
[19] = second compound 0.316 µM, first compound 0.0316 µM
[20] = second compound 0.316 µM, first compound 0.1 µM
[21] = second compound 0.316 µM, first compound 0.316 µM
[22] = second compound 0.316 µM, first compound 1 µM
[23] = second compound 0.316 µM, first compound 3.16 µM
[24] = second compound 0.316 µM, first compound 10 µM
[25] = second compound 1 µM, first compound 0.0316 µM
[26] = second compound 1 µM, first compound 0.1 µM
[27] = second compound 1 µM, first compound 0.316 µM
[28] = second compound 1 µM, first compound 1 µM
[29] = second compound 1 µM, first compound 3.16 µM
[30] = second compound 1 µM, first compound 10 µM
[31] = second compound 3.16 µM, first compound 0.0316 µM
[32] = second compound 3.16 µM, first compound 0.1 µM
[33] = second compound 3.16 µM, first compound 0.316 µM
[34] = second compound 3.16 µM, first compound 1 µM
[35] = second compound 3.16 µM, first compound 3.16 µM
[36] = second compound 3.16 µM, first compound 10 µM
[37] = second compound 10 µM, first compound 0.0316 µM
[38] = second compound 10 µM, first compound 0.1 µM
[39] = second compound 10 µM, first compound 0.316 µM
[40] = second compound 10 µM, first compound 1 µM
[41] = second compound 10 µM, first compound 3.16 µM
[42] = second compound 10 µM, first compound 10 µM
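Also: viability read 7 days after compound addition.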

C=CC(=O)N1CCN(c2nc(=O)n(-c3c(C)ccnc3C(C)C)c3nc(-c4c(O)cccc4F)c(F)cc23)C(C)C1 (stereo not given) + Cc1nc(NC(=O)N2CCCC2C(N)=O)sc1-c1ccnc(C(C)(C)C(F)(F)F)c1
pIC50 [1]: < 5.00 | pIC50 [2]: < 5.00 | pIC50 [3]: < 5.00 | pIC50 [4]: < 5.00 | pIC50 [5]: < 5.00 | pIC50 [6]: < 5.00 | viability, T/C [7]: 86.3% | viability, T/C [8]: 91.1% | viability, T/C [9]: 99.2% | viability, T/C [10]: 104% | viability, T/C [11]: 108% | viability, T/C [12]: 85.5% | viability, T/C [13]: 99.6% | viability, T/C [14]: 78.7% | viability, T/C [15]: 85.7% | viability, T/C [16]: 100% | viability, T/C [17]: 105% | viability, T/C [18]: 82.7% | viability, T/C [19]: 80.6% | viability, T/C [20]: 87.2% | viability, T/C [21]: 94.1% | viability, T/C [22]: 91.8% | viability, T/C [23]: 84.7% | viability, T/C [24]: 76.9% | viability, T/C [25]: 83.5% | viability, T/C [26]: 76.6% | viability, T/C [27]: 73.9% | viability, T/C [28]: 83.7% | viability, T/C [29]: 94.7% | viability, T/C [30]: 65.6% | viability, T/C [31]: 66.3% | viability, T/C [32]: 71.3% | viability, T/C [33]: 71.1% | viability, T/C [34]: 72.7% | viability, T/C [35]: 71.2% | viability, T/C [36]: 59% | viability, T/C [37]: 54.6% | viability, T/C [38]: 55.2% | viability, T/C [39]: 59.2% | viability, T/C [40]: 62.6% | viability, T/C [41]: 62.4% | viability, T/C [42]: 49%

CC(=O)c1c(C)c2cnc(Nc3ccc(N4CCNCC4)cn3)nc2n(C2CCCC2)c1=O
viability, T/C (compound 0.000316 µM): 112% and 99.6% and 105% | viability, T/C (compound 0.001 µM): 110% and 101% and 102% | viability, T/C (compound 0.00316 µM): 103% and 113% and 106% | viability, T/C (compound 0.01 µM): 108% and 111% and 103% | viability, T/C (compound 0.0316 µM): 99.5% and 106% and 104% | viability, T/C (compound 0.1 µM): 89.5% and 91.3% and 105% | pIC50 (curve of compound): < 7.00

CC(Cn1ccc(-c2ccc(C#N)c(Cl)c2)n1)NC(=O)c1cc(C(C)O)[nH]n1 (stereo not given) + CC(Nc1ncnc2nc[nH]c12)c1cc2cccc(Cl)c2c(=O)n1-c1ccccc1
pIC50 [1]: < 5.00 | pIC50 [2]: < 5.00 | pIC50 [3]: < 5.00 | pIC50 [4]: < 5.00 | pIC50 [5]: < 5.00 | pIC50 [6]: < 5.00 | viability, T/C [7]: 104% | viability, T/C [8]: 110% | viability, T/C [9]: 106% | viability, T/C [10]: 105% | viability, T/C [11]: 116% | viability, T/C [12]: 96.7% | viability, T/C [13]: 114% | viability, T/C [14]: 101% | viability, T/C [15]: 102% | viability, T/C [16]: 108% | viability, T/C [17]: 102% | viability, T/C [18]: 103% | viability, T/C [19]: 111% | viability, T/C [20]: 107% | viability, T/C [21]: 104% | viability, T/C [22]: 107% | viability, T/C [23]: 105% | viability, T/C [24]: 101% | viability, T/C [25]: 113% | viability, T/C [26]: 110% | viability, T/C [27]: 102% | viability, T/C [28]: 118% | viability, T/C [29]: 107% | viability, T/C [30]: 102% | viability, T/C [31]: 103% | viability, T/C [32]: 98.5% | viability, T/C [33]: 87% | viability, T/C [34]: 99.6% | viability, T/C [35]: 101% | viability, T/C [36]: 94.7% | viability, T/C [37]: 88% | viability, T/C [38]: 94.8% | viability, T/C [39]: 99.4% | viability, T/C [40]: 95.8% | viability, T/C [41]: 92.5% | viability, T/C [42]: 87.8%

CC(=O)c1c(C)c2cnc(Nc3ccc(N4CCNCC4)cn3)nc2n(C2CCCC2)c1=O + COc1c(OCCCN2CCOCC2)ccc2c3n(c(=NC(=O)c4cnc(N)nc4)nc12)CCN3
pIC50 (curve of first compound, second compound 0.00316 µM): < 7.00 | pIC50 (curve of first compound, second compound 0.01 µM): < 7.00 | pIC50 [1]: < 7.00 | pIC50 [2]: < 7.00 | pIC50 [3]: 9.31 | pIC50 [4]: > 9.50 | viability, T/C (second compound 0.00316 µM, first compound 0.000316 µM): 108% | viability, T/C (second compound 0.00316 µM, first compound 0.001 µM): 102% | viability, T/C (second compound 0.00316 µM, first compound 0.00316 µM): 94.8% | viability, T/C (second compound 0.00316 µM, first compound 0.01 µM): 99.6% | viability, T/C (second compound 0.00316 µM, first compound 0.0316 µM): 97.3% | viability, T/C (second compound 0.00316 µM, first compound 0.1 µM): 94.8% | viability, T/C (second compound 0.01 µM, first compound 0.000316 µM): 105% | viability, T/C (second compound 0.01 µM, first compound 0.001 µM): 97.7% | viability, T/C (second compound 0.01 µM, first compound 0.00316 µM): 92.7% | viability, T/C (second compound 0.01 µM, first compound 0.01 µM): 94% | viability, T/C (second compound 0.01 µM, first compound 0.0316 µM): 98.6% | viability, T/C (second compound 0.01 µM, first compound 0.1 µM): 91.5% | viability, T/C (second compound 0.0316 µM, first compound 0.000316 µM): 77.5% | viability, T/C (second compound 0.0316 µM, first compound 0.001 µM): 84.4% | viability, T/C (second compound 0.0316 µM, first compound 0.00316 µM): 76.2% | viability, T/C (second compound 0.0316 µM, first compound 0.01 µM): 80.9% | viability, T/C [7]: 82.3% | viability, T/C [8]: 79.4% | viability, T/C (second compound 0.1 µM, first compound 0.000316 µM): 70.8% | viability, T/C (second compound 0.1 µM, first compound 0.001 µM): 65% | viability, T/C (second compound 0.1 µM, first compound 0.00316 µM): 66.2% | viability, T/C (second compound 0.1 µM, first compound 0.01 µM): 64.1% | viability, T/C [13]: 67.7% | viability, T/C [14]: 51.2% | viability, T/C (second compound 0.316 µM, first compound 0.000316 µM): 51.9% | viability, T/C (second compound 0.316 µM, first compound 0.001 µM): 47.2% | viability, T/C (second compound 0.316 µM, first compound 0.00316 µM): 47.6% | viability, T/C (second compound 0.316 µM, first compound 0.01 µM): 43.8% | viability, T/C [19]: 44.5% | viability, T/C [20]: 37.5% | viability, T/C (second compound 1 µM, first compound 0.000316 µM): 35.1% | viability, T/C (second compound 1 µM, first compound 0.001 µM): 35.9% | viability, T/C (second compound 1 µM, first compound 0.00316 µM): 32.2% | viability, T/C (second compound 1 µM, first compound 0.01 µM): 31.9% | viability, T/C [25]: 34.3% | viability, T/C [26]: 26.1%

CC1(C)CCC(CN2CCN(c3ccc(C(=O)NS(=O)(=O)c4ccc(NCC5CCOCC5)c([N+](=O)[O-])c4)c(Oc4cnc5[nH]ccc5c4)c3)CC2)=C(c2ccc(Cl)cc2)C1 + Cc1nc(NC(=O)N2CCCC2C(N)=O)sc1-c1ccnc(C(C)(C)C(F)(F)F)c1
pIC50 [1]: 5.22 | pIC50 [2]: 5.23 | pIC50 [3]: 5.27 | pIC50 [4]: 5.33 | pIC50 [5]: 5.35 | pIC50 [6]: 5.46 | viability, T/C [7]: 105% | viability, T/C [8]: 98.3% | viability, T/C [9]: 98% | viability, T/C [10]: 108% | viability, T/C [11]: 90.3% | viability, T/C [12]: 19% | viability, T/C [13]: 95.4% | viability, T/C [14]: 94% | viability, T/C [15]: 92% | viability, T/C [16]: 102% | viability, T/C [17]: 92.6% | viability, T/C [18]: 14% | viability, T/C [19]: 91.7% | viability, T/C [20]: 101% | viability, T/C [21]: 98.5% | viability, T/C [22]: 84.7% | viability, T/C [23]: 80.2% | viability, T/C [24]: 15.7% | viability, T/C [25]: 91.7% | viability, T/C [26]: 78.4% | viability, T/C [27]: 79.4% | viability, T/C [28]: 88.1% | viability, T/C [29]: 72.5% | viability, T/C [30]: 8.3% | viability, T/C [31]: 73.2% | viability, T/C [32]: 72.8% | viability, T/C [33]: 72.5% | viability, T/C [34]: 70.6% | viability, T/C [35]: 67.6% | viability, T/C [36]: 8.18% | viability, T/C [37]: 57.1% | viability, T/C [38]: 57.9% | viability, T/C [39]: 50.3% | viability, T/C [40]: 58.1% | viability, T/C [41]: 53.7% | viability, T/C [42]: 7.58%
